# PubChem BioAssay AID2060345 (Molecular Pharmacology Branch, DTP, NCI, 2025)
# System: MALME-3M multicell spheroids, viability
# Assay: Anticancer human tumor MALME-3M cell line growth inhibition [TAK];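 also: spheroids exposed to drugs for seven days before readout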;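 as to viability, T/C: 100% = DMSO vehicle control viability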
# Details: for IC50: curve of first compound; for viability, T/C: stronger effect = lower value
# Description: Combinatorial screen of targeted agents with TAK-243 and ipatasertib in multi-cell type tumor spheroids
# A high-throughput screen of multi-cell type tumor spheroids was designed to identify active combinations of targeted small molecules and TAK-243 or ipatasertib. Complex spheroids include a stromal component modeled by human endothelial cells (HUVEC) and fibroblasts modeled by human mesenchymal stem cells (MSCs). The concentration ranges selected for each drug and investigational agent were based upon clinically achievable concentrations if the clinical Cmax of the agent was known.
# Compounds. The drugs and investigational agents: TAK-243 (785004), ipatasertib (767898), everolimus (733504), selumetinib (741078), bortezomib (756655), trametinib (758246), ixazomib (758254), vemurafenib (761431), dabrafenib (764134), sapanisertib (764658), alpelisib (765974), and copanlisib (816437), were obtained from the National Cancer Institute (NCI) Developmental Therapeutics Program Chemical Repository. The FDA-approved anticancer drug set is available from the NCI Developmental Therapeutics Program. […] The stock solutions were prepared in dimethyl sulfoxide (DMSO, Sigma-Aldrich, St. Louis, MO, cat. D2650) at 800-fold the tested concentration and stored at -70 degrees C prior to their use. All drugs and investigational agents were tested over a range starting from a high concentration at or near the clinical Cmax and decreasing in half-log increments. If the clinical Cmax for an agent had not been determined, the highest concentration tested was 10 microM.
# NCI60 Cell Culture. NCI60 cell lines were obtained from the NCI Developmental Therapeutics Program Tumor Repository. For each lot of cells, the Repository performed Applied Biosystems AmpFLSTR Identifiler testing with PCR amplification to confirm consistency with the published Identifier STR profile for each cell line. Cells were kept in continuous culture for no more than 20 passages. The optimal seeding densities for each of the cell lines at each time point assessed were determined prior to performing the concentration response studies. Briefly, the NCI60 human tumor lines were grown as monolayers in RPMI 1640 medium supplemented with 10% FBS and 2 mmol/L L-glutamine.
# An additional 2 lines were from the NCI60 cell line panel including melanomas, MALME-3M and SK-MEL-2. Pooled donor human umbilical vein endothelial cells (HUVEC, Lonza, cat. CC-2519) and human mesenchymal stem cells (hMSC, Lonza, cat. PT-2501) were purchased from Lonza (Walkersville, MD).
# PDMR cell lines were grown in complete medium (DC medium): Dulbecco's modified Eagle's medium (DMEM)/F12 supplemented with 5% fetal bovine serum (FBS), 2 mM L-glutamine, 100 U/mL penicillin and 100 µg/ml streptomycin, 0.4 µg/ml hydrocortisone, 10 ng/ml epidermal growth factor (EGF) recombinant human protein, 24 µg/mL adenine, and 0.1 mg/mL primocin. During culture from frozen stock vials, PDMR cells were cultured in the same medium containing 10 µM Y-27632 (see Table 3). The PDCs were cultured in complete DMEM/F12 media without 10 microM Y-27632 dihydrochloride for at least two passages prior to the screen. The pooled donor HUVEC and hMSC were cultured in endothelial cell growth medium 2 (PromoCell, Heidelberg, Germany, cat. C-22011) and mesenchymal stem cell growth medium 2 (PromoCell, cat. C-28009), respectively. For all experiments, HUVEC and hMSC were used at passages </=5.
# For the pre-screen, cell seeding densities were determined from a titration spanning the range from 5,000 to 313 cells per well. The mct-spheroids including 60% malignant cells, 25% HUVEC and 15% MSC dispensed as a mixture into U-bottom Ultra-Low Attachment 384-well plates (Corning, NY)
# High-throughput Drug Combination Screening.
# Prior to their inoculation into 384-well plates, malignant cells, HUVEC, and hMSC were removed from T flasks using TrypLE express (Thermo Fisher Scientific, cat. 12605036) and harvested by centrifugation for 5 min at 233 x g. […]
# [1] = second compound 0.3 µM, first compound 0.000316 µM
# [2] = second compound 0.3 µM, first compound 0.001 µM
# [3] = second compound 0.3 µM, first compound 0.00316 µM
# [4] = second compound 0.3 µM, first compound 0.01 µM
# [5] = second compound 0.3 µM, first compound 0.0316 µM
# [6] = second compound 0.3 µM, first compound 0.1 µM
# [7] = second compound 0.949 µM, first compound 0.000316 µM
# [8] = second compound 0.949 µM, first compound 0.001 µM
# [9] = second compound 0.949 µM, first compound 0.00316 µM
# [10] = second compound 0.949 µM, first compound 0.01 µM
# [11] = second compound 0.949 µM, first compound 0.0316 µM
# [12] = second compound 0.949 µM, first compound 0.1 µM
# [13] = second compound 3 µM, first compound 0.000316 µM
# [14] = second compound 3 µM, first compound 0.001 µM
# [15] = second compound 3 µM, first compound 0.00316 µM
# [16] = second compound 3 µM, first compound 0.01 µM
# [17] = second compound 3 µM, first compound 0.0316 µM
# [18] = second compound 3 µM, first compound 0.1 µM
# [19] = second compound 9.49 µM, first compound 0.000316 µM
# [20] = second compound 9.49 µM, first compound 0.001 µM
# [21] = second compound 9.49 µM, first compound 0.00316 µM
# [22] = second compound 9.49 µM, first compound 0.01 µM
# [23] = second compound 9.49 µM, first compound 0.0316 µM
# [24] = second compound 9.49 µM, first compound 0.1 µM
# [25] = second compound 30 µM, first compound 0.000316 µM
# [26] = second compound 30 µM, first compound 0.001 µM
# [27] = second compound 30 µM, first compound 0.00316 µM
# [28] = second compound 30 µM, first compound 0.01 µM
# [29] = second compound 30 µM, first compound 0.0316 µM
# [30] = second compound 30 µM, first compound 0.1 µM
Compound,IC50 (second compound 0.3 µM) [nM],IC50 (second compound 0.949 µM) [nM],IC50 (second compound 3 µM) [nM],IC50 (second compound 9.49 µM) [nM],IC50 (second compound 30 µM) [nM],"viability, T/C [1] [%]","viability, T/C [2] [%]","viability, T/C [3] [%]","viability, T/C [4] [%]","viability, T/C [5] [%]","viability, T/C [6] [%]","viability, T/C [7] [%]","viability, T/C [8] [%]","viability, T/C [9] [%]","viability, T/C [10] [%]","viability, T/C [11] [%]","viability, T/C [12] [%]","viability, T/C [13] [%]","viability, T/C [14] [%]","viability, T/C [15] [%]",also measured
CC(C)n1nc(-c2ccc3oc(N)nc3c2)c2c(N)ncnc21 + CC(C)NCC(C(=O)N1CCN(c2ncnc3c2C(C)CC3O)CC1)c1ccc(Cl)cc1,12.1,7.82,5.3,1.81,< 0.316,87.8,76.1,69.3,55.7,31.3,11.2,81.6,74.7,65.6,46.6,23.1,10,67.6,61.1,52.4,"viability, T/C [16]: 45.8%; viability, T/C [17]: 14.5%; viability, T/C [18]: 6.89%; viability, T/C [19]: 62%; viability, T/C [20]: 56.7%; viability, T/C [21]: 43.7%; viability, T/C [22]: 22.5%; viability, T/C [23]: 9.06%; viability, T/C [24]: 4.23%; viability, T/C [25]: 36.5%; viability, T/C [26]: 37.5%; viability, T/C [27]: 28.6%; viability, T/C [28]: 17.2%; viability, T/C [29]: 8.52%; viability, T/C [30]: 4.01%"
CC(C)CC(NC(=O)CNC(=O)c1cc(Cl)ccc1Cl)B1OC(=O)CC(CC(=O)O)(C(=O)O)O1 (stereo not given) + CC(C)NCC(C(=O)N1CCN(c2ncnc3c2C(C)CC3O)CC1)c1ccc(Cl)cc1,16.8,17.5,9.34,11.8,< 0.316,109,97.2,90.6,82.6,10.4,0.25,92.4,89,95.4,87.2,10.7,0.17,90.5,77,77.5,"viability, T/C [16]: 49.1%; viability, T/C [17]: 6.98%; viability, T/C [18]: 0.17%; viability, T/C [19]: 70.9%; viability, T/C [20]: 68%; viability, T/C [21]: 64.8%; viability, T/C [22]: 57.6%; viability, T/C [23]: 5.18%; viability, T/C [24]: 0.17%; viability, T/C [25]: 48.2%; viability, T/C [26]: 49.8%; viability, T/C [27]: 45.2%; viability, T/C [28]: 30.9%; viability, T/C [29]: 4.73%; viability, T/C [30]: 0.24%"
